Laboratory results as given in patent US8119633B2, “Substituted sulfonamide compounds” (Gruenenthal GmbH, priority 2007, dated 2012).

Experiments:
[1] = biological target: T1, human bradykinin receptor 1 (B1R) (Homo sapiens, UniProt P46663); experiment: Functional study on the bradykinin receptor 1 (B1R), human: FLIPR Ca2+ influx assay; assay type: cell-based; settings: test substance 10 μM, CHO K1 cells transfected with human B1R, Lys-Des-Arg9-bradykinin at EC80, Ca2+ influx (Fluo-4, FLIPR); for inhibition at 10 µM: read-out: B1R antagonism, human [10 μM] % inhibition
T1 construct: expressed in transfected cells; host or cells: CHO K1 cells
T1 sequence (P46663 1-353): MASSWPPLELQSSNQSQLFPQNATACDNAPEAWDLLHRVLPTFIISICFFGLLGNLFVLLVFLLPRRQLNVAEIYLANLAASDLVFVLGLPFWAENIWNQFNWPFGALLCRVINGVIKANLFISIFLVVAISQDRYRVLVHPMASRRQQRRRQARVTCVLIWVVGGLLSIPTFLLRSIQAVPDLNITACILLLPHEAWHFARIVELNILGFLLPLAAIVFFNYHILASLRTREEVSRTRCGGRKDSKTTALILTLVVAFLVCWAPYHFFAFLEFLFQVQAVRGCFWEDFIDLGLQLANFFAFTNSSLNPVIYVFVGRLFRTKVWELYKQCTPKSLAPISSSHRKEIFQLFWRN
Outline: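 CHO K1 cells stably expressing human B1R were loaded with Fluo-4, and Ca2+ fluorescence was read on FLIPR (ex 488/em 540 nm). Compound was added first (10 μM for % activation against Lys-Des-Arg9-bradykinin ≥0.5 nM). After 10-20 min, Lys-Des-Arg9-bradykinin was added at EC80 for % inhibition; IC50 came from concentration series, n=2-3, N≥2.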

[2] = biological target: T2, human μ-opiate receptor (Homo sapiens, UniProt P35372); experiment: Affinity for the human μ-opiate receptor ([3H]-naloxone displacement, SPA); settings: test substance 1 μmol/l, inhibition of specific [3H]-naloxone binding, CHO-K1 receptor membrane preparation; for inhibition at 1 µM: read-out: μ-Opioid receptor [1 μM] % inhibition
T2 construct: purchased PerkinElmer Life Sciences, Zaventem, Belgium RB-HOM; host or cells: CHO-K1 cells (membrane preparation)
Outline: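 Membranes from CHO-K1 cells expressing human μ-opiate receptor were incubated 90 min at room temperature with 1 nmol/l [3H]-naloxone and WGA-SPA beads in 50 mmol/l Tris-HCl with 0.06% BSA; non-specific binding was defined with 100 μmol/l naloxone. Percent inhibition was measured at 1 μmol/l, IC50 was derived from concentration series, and Ki was obtained by Cheng-Prusoff.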

[3] = biological target: T3, bradykinin receptor 1 (B1R) of the rat (Rattus norvegicus, UniProt P97583); experiment: Functional study on the bradykinin receptor 1 (B1R), rat: FLIPR Ca2+ influx assay; assay type: cell-based; settings: test substance 10 μM, CHO K1 cells transfected with rat B1R, Des-Arg9-bradykinin at EC80, Ca2+ influx (Fluo-4, FLIPR); for inhibition at 10 µM: read-out: B1R antagonism, rat [10 μM] % inhibition
T3 construct: expressed in transfected cells; host or cells: CHO K1 cells
T3 sequence (P97583 1-337): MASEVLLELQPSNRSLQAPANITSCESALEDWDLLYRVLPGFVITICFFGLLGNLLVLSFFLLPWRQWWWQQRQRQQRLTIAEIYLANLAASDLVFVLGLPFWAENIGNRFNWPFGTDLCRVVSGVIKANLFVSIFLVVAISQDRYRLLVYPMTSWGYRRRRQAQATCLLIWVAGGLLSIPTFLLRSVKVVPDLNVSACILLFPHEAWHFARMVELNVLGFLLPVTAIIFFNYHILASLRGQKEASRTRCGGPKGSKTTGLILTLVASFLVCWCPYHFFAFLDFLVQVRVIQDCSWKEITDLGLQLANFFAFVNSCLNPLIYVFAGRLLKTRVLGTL
Outline: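 CHO K1 cells stably expressing rat B1R, Fluo-4-loaded, read on FLIPR (ex 488/em 540 nm, peak fluorescence). Test substances added first (agonism vs 10 μM Des-Arg9-bradykinin), then after 10-20 min Des-Arg9-bradykinin at EC80; % inhibition and IC50 from concentration series, n=2-3, N≥2.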

T2 sequence (P35372 whole entry): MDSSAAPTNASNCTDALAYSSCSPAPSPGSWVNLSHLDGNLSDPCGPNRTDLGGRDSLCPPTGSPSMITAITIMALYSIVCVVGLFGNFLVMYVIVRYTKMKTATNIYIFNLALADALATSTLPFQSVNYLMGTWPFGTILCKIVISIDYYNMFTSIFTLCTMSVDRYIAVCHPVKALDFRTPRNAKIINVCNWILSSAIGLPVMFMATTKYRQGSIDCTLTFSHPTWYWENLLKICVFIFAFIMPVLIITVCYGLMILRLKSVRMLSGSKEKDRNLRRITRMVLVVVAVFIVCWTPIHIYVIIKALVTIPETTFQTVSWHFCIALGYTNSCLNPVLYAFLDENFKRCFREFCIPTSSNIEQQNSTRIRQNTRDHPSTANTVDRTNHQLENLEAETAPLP

| Molecule | inhibition at 10 µM [1] | inhibition at 1 µM [2] | inhibition at 10 µM [3] | B1R antagonism, human [10 μM] % inhibition [1] | μ-Opioid receptor [1 μM] % inhibition [2] | B1R antagonism, rat [10 μM] % inhibition [3] |
| --- | --- | --- | --- | --- | --- | --- |
| CN1CCN(C(c2ccccc2)C2CCN(C(=O)CC(NS(=O)(=O)c3ccc4ccccc4c3)c3ccccc3)CC2)CC1 (stereo not drawn) [Example 114, N-(3-(4-((4-methylpiperazin-1-yl)(phenyl)methyl)piperidin-1-yl)-3-oxo-1-phenylpropyl)naphthalene-2-sulfonamide] | 93% | 40% | 71% |  |  |  |
| CN1CCN(C(c2cccc(F)c2)C2CCN(C(=O)CC3CCCCN3S(=O)(=O)c3cccc(C(F)(F)F)c3)CC2)CC1 (stereo not drawn) [Example 115, 1-(4-((3-fluorophenyl)(4-methylpiperazin-1-yl)methyl)piperidin-1-yl)-2-(1-(3-(trifluoromethyl)phenylsulfonyl)piperidin-2-yl)ethanone] | 87% | 11% | 52% |  |  |  |
| CN1CCN(C(Cc2ccccc2)C2CCN(C(=O)CC(NS(=O)(=O)c3ccc4ccccc4c3)c3ccccc3)CC2)CC1 (stereo not drawn) [Example 116, N-(3-(4-(1-(4-methylpiperazin-1-yl)-2-phenylethyl)piperidin-1-yl)-3-oxo-1-phenylpropyl)naphthalene-2-sulfonamide] | 102% | 7% | 93% |  |  |  |
| Cc1cc(S(=O)(=O)N2CCCCC2CCC(=O)N2CCC(C(Cc3ccccc3)N3CCN(C)CC3)CC2)c(C)cc1Cl (stereo not drawn) [Example 118, 3-(1-(4-chloro-2,5-dimethylphenylsulfonyl)piperidin-2-yl)-1-(4-(1-(4-methyl-piperazin-1-yl)-2-phenylethyl)piperidin-1-yl)propan-1-one] | 101% | 3% | 93% |  |  |  |
| Cc1cc(S(=O)(=O)N2CCCCC2CCC(=O)N2CCC(C(CCc3ccccc3)N3CCN(C)CC3)CC2)c(C)cc1Cl (stereo not drawn) [Example 119, 3-(1-(4-chloro-2,5-dimethylphenylsulfonyl)piperidin-2-yl)-1-(4-(1-(4-methyl-piperazin-1-yl)-3-phenylpropyl)piperidin-1-yl)propan-1-one] | 102% | 52% | 97% |  |  |  |
| Cc1cc(S(=O)(=O)N2CCCCC2CCC(=O)N2CCC(C(c3cccc(F)c3)N3CCN(C)CC3)CC2)c(C)cc1Cl (stereo not drawn) [Example 120, 3-(1-(4-chloro-2,5-dimethylphenylsulfonyl)piperidin-2-yl)-1-(4-((3-fluorophenyl)(4-methylpiperazin-1-yl)methyl)piperidin-1-yl)propan-1-one] | 105% | 41% | 73% |  |  |  |
| Cc1cc(S(=O)(=O)N2CCCCC2CCC(=O)N2CCC(C(c3ccc(F)cc3)N3CCN(C)CC3)CC2)c(C)cc1Cl (stereo not drawn) [Example 121, 3-(1-(4-chloro-2,5-dimethylphenylsulfonyl)piperidin-2-yl)-1-(4-((4-fluorophenyl)(4-methylpiperazin-1-yl)methyl)piperidin-1-yl)propan-1-one] | 105% | 6% | 58% |  |  |  |
| N-(3-(4-(1-(4-methylpiperazin-1-yl)-3-phenylpropyl)piperidin-1-yl)-3-oxo-1-phenylpropyl)naphthalene-2-sulfonamide [Example 113] |  |  |  | 97% | 21% | 39% |
